Test results reported in US6630128B1, “Porphyrin derivatives their use in photodynamic therapy and medical devices containing them” (Destiny Pharma Limited, priority 1999, dated 2003).

How the values were obtained:
[1] = Fluorescence quantum yields (corrected emission spectra, relative to TPP); type: physicochemical; conditions: excitation wavelength 355 nm, emission 550-800 nm
Procedure: Mass spectra were recorded on a Finnigan MAT TSQ 700 triple quadrupole mass spectrometer equipped with an […]. The matrix-assisted laser desorption/ionization mass spectra of the porphyrins were obtained using a dithranol matrix. FAB-MS spectra were obtained using a 3-nitrobenzyl alcohol (NOBA) matrix. ^1H-NMR spectra were measured at 60 MHz on a Jeol JNM-PMX60 spectrometer, at 270 MHz on a Jeol EX 270 spectrometer and at 300 MHx on a Varian Gemini-300 spectrometer in CDCl3 using TMS as an internal reference. Ultraviolet/visible spectra of solutions of compounds in tetrahydrofuran (THF) or toluene were measured using a Hitachi U-3000 spectrophotometer or a ATI-Unicam UV-2 spectrophotometer. Reflectance-absorbance infra red (RAIR) spectra were recorded on a BIO-RAD FTS 165 spectrophotometer. Fluorescence emission spectra were recorded using a Spex Fluorolog 3 spectrophotometer at an excitation wavelength of 355 nm, emission at 550 to 800 nm, with a bandpass of 2 nm.
The emission spectra were recorded using a Spex Fluorolog 3, excitation wavelength=355 nm, emission 550-800 nm, with a bandpass of 2 nm. A spectrum was recorded for each of the title compounds of Examples 67 to 81.
The fluorescence quantum yield for each of the title compounds of Examples 67 to 81 was determined by measuring the integral of the corrected emission spectra for each compound and calculated relative to TPP=0.11 (Handbook of Photochemistry Ed 2, Murov, Carmichael and Hug, Dekker 1993). The fluorescence quantum yield for each of the title compounds of Examples 67 to 81 are listed in Table 1; values for Zn TPP and Mg TPP are included in Table 1 for reference but they were not measured in this work.

[2] = Singlet oxygen quantum yields (singlet oxygen phosphorescence at 1270 nm); type: physicochemical; conditions: aerated toluene, excitation 355 nm, 20-23° C., relative to TPP ΦΔ=0.58
Procedure: The singlet oxygen quantum yields were determined by the direct measurement of singlet oxygen phosphorescence at 1270 nm. Samples were excited using the third harmonic of a Q-switched Nd:YAG (neodymium: yttrium-aluminium-garnet) Spectra Physics GCR-150-10 laser, operating at an excitation wavelength of 355 nm. A small fraction of the laser output was passed through a solution state filter containing aqueous cobalt (II) sulphate (CoSO4) to remove residual 532 and 1064 nm radiation and then down a 8 mm diameter liquid light guide (Oriel). For the measurements the end of the light guide was held against a 1 cm×1 cm fluorescence cuvette (Hellma) holding the sample. During the course of the experiments the incident laser energy for each measurement was determined using a pyroelectric detector held behind the sample. This detector was calibrated at the start of the experiment using a second calibrated energy meter (Gentec ED100). The laser energy was adjusted by placing cells containing aqueous sodium nitrite between the CoSO4 filter and the light guide. Typical pulse energies used were in the range of 25-500 μJ per pulse. Shot to shot noise was estimated to be <10% and sets of 20 shots gave an average value within <3%.
Phosphorescence from the sample was collected and passed through an interference filter centred at 1270 nm available from (Infra Red Engineering Ltd) and then focused onto the active area of a liquid nitrogen cooled germanium photodiode (North Coast EO-817P). The output from this device was AC coupled to a digital oscilloscope (Tektronix TDS-320) which digitised and averaged the transients. Typically 20 laser shots were used for each sample. The averaged data was transferred to a PC where it was stored and analysed.
A stock solution of each of the title compounds of Examples 67 to 81 was prepared by dissolving a small sample of the respective title compound in approximately 5 ml of toluene (Fisher Scientific, Analytical grade). The exact concentrations of the stock solution was not determined.
A working solution of each of the title compounds of Examples 67 to 81 was prepared by diluting the respective stock solution with toluene to give an absorbance of 0.100±0.005 at 355 nm when placed in a ultraviolet/visible spectrometer (ATI-Unicam UV-2) compared to a reference cell containing the pure toluene solvent. The ultraviolet/visible spectrum of each sample was also recorded over the range 300-700 nm.
All of the data were recorded at ambient temperature, 20-23° C., and the solutions were aerated. The singlet oxygen emission decay was recorded for each sample using 5 laser energies and the data for each measurement were fitted to an exponential decay of the form I(t)=A.exp(−t/τ), where I(t) is the measured intensity of singlet oxygen phosphorescence at time t, A is the intensity extrapolated back to t=0 (ie when the laser fires), and τ is the lifetime of singlet oxygen. A typical decay for the title compound of Example 78 in toluene excited at 355 nm using a pulse energy of 365 μJ, where A=19.6 and τ=27.8 μs, is shown in FIG. 2.
A plot of A versus the incident laser energy was drawn for each sample and the slope determined. The slope of such a graph is proportional to the singlet oxygen quantum yield. An example of a plot showing the linear relationship between the singlet oxygen emission intensity and the laser energy for the title compound of Example 78 and meso-tetraphenylporphyrin (TPP) is shown in FIG. 3.
The experiments were carried out using batches of 5 samples of the working solution of each of the title compounds of 67 to 81 plus one reference sample meso-tetraphenylporphyrin (TPP). Each run was repeated at least once. The data sets obtained for each sample were within ±5% of the mean value.
The dominant sources of error in the experiment include the shot-to-shot fluctuations in the laser and the difference in absorbances of the samples at the excitation wavelength. The values have an error of ±10%. […]

| Quantum yield of fluorescence, relative to TPP = 0.11 [1] | Compound | ΦΔ (singlet oxygen quantum yield) [2] |
| --- | --- | --- |
| 0.10 | 5,5′-{4,4′-[12,12′-Dithiobis-(dodecyloxy)-phenyl]}-10,10′,15,15′,20,20′-hexakis-(3,4,5-tridecyloxy-phenyl)-diporphyrinato Magnesium [Example 68] | 0.39 ± 0.04 |
| 0.04 | 5,5′-{4,4′-[12,12′-Dithiobis-(dodecyloxy)-phenyl]}-10,10′,15,15′,20,20′-hexakis-(3,4,5-tridecyloxy-phenyl)-diporphyrinato Zinc [Example 67] | 0.65 ± 0.07 |
| 0.04 | 5-[4-(6-but-3-Enyloxy-hexyloxy)-phenyl]-10,15,20-tris-(3,4,5-tridecyloxy-phenyl)-porphyrinato Zinc [Example 70] | 0.75 ± 0.07 |
| 0.04 | 5-[4-(6-but-3-Enyloxy-hexyloxy)-phenyl]-10,15,20-tris-(3,5-didecyloxy-phenyl)-porphyrinato Zinc [Example 79] | 0.76 ± 0.08 |
| 0.04 | 5-[4-(12-but-3-Enyloxy-dodecyloxy)-phenyl]-10,15,20-tris-(3,4,5-trihexyloxy-phenyl)-porphyrinato Zinc [Example 72] | 0.71 ± 0.07 |
| 0.04 | 5-[4-(12-but-3-Enyloxy-dodecyloxy)-phenyl]-10,15,20-tris-(3,5-didecyloxy-phenyl)-porphyrinato Zinc [Example 80] | 0.75 ± 0.07 |
| 0.04 | 5-[4-(12-but-3-Enyloxy-dodecyloxy)-phenyl]-10,15,20-tris-(3,5-dihexadecyloxy-phenyl)-porphyrinato Zinc [Example 81] | 0.70 ± 0.07 |
| 0.04 | C=CCCOCCCCCCOc1ccc(-c2c3nc(c(-c4cc(OCCCCCC)c(OCCCCCC)c(OCCCCCC)c4)c4ccc([n-]4)c(-c4cc(OCCCCCC)c(OCCCCCC)c(OCCCCCC)c4)c4nc(c(-c5cc(OCCCCCC)c(OCCCCCC)c(OCCCCCC)c5)c5ccc2[n-]5)C=C4)C=C3)cc1.[Zn+2] [Example 69, 5-[4-(6-but-3-Enyloxy-hexyloxy)-phenyl]-10,15,20-tris-(3,4,5-trihexyloxy-phenyl)-porphyrinato Zinc] | 0.71 ± 0.07 |
| 0.04 | C=CCCOCCCCCCOc1ccc(-c2c3nc(c(-c4cc(OCCCCCCCCCCCCCCCC)c(OCCCCCCCCCCCCCCCC)c(OCCCCCCCCCCCCCCCC)c4)c4ccc([n-]4)c(-c4cc(OCCCCCCCCCCCCCCCC)c(OCCCCCCCCCCCCCCCC)c(OCCCCCCCCCCCCCCCC)c4)c4nc(c(-c5cc(OCCCCCCCCCCCCCCCC)c(OCCCCCCCCCCCCCCCC)c(OCCCCCCCCCCCCCCCC)c5)c5ccc2[n-]5)C=C4)C=C3)cc1.[Zn+2] [Example 71, 5-[4-(6-but-3-Enyloxy-hexyloxy)-phenyl]-10,15,20-tris-(3,4,5-trihexadecyloxy-phenyl)-porphyrinato Zinc] | 0.72 ± 0.07 |
| 0.04 | C=CCCOCCCCCCCCCCCCOc1ccc(-c2c3nc(c(-c4cc(OCCCCCCCCCC)c(OCCCCCCCCCC)c(OCCCCCCCCCC)c4)c4ccc([n-]4)c(-c4cc(OCCCCCCCCCC)c(OCCCCCCCCCC)c(OCCCCCCCCCC)c4)c4nc(c(-c5cc(OCCCCCCCCCC)c(OCCCCCCCCCC)c(OCCCCCCCCCC)c5)c5ccc2[n-]5)C=C4)C=C3)cc1.[Zn+2] [Example 73, 5-[4-(12-but-3-Enyloxy-dodecyloxy)-phenyl]-10,15,20-tris-(3,4,5-tridecyloxy-phenyl)-porphyrinato Zinc] | 0.71 ± 0.07 |
| 0.04 | C=CCCOCCCCCCCCCCCCOc1ccc(-c2c3nc(c(-c4cc(OCCCCCCCCCCCCCCCC)c(OCCCCCCCCCCCCCCCC)c(OCCCCCCCCCCCCCCCC)c4)c4ccc([n-]4)c(-c4cc(OCCCCCCCCCCCCCCCC)c(OCCCCCCCCCCCCCCCC)c(OCCCCCCCCCCCCCCCC)c4)c4nc(c(-c5cc(OCCCCCCCCCCCCCCCC)c(OCCCCCCCCCCCCCCCC)c(OCCCCCCCCCCCCCCCC)c5)c5ccc2[n-]5)C=C4)C=C3)cc1.[Zn+2] [Example 74, 5-[4-(12-but-3-Enyloxy-dodecyloxy)-phenyl]-10,15,20-tris-(3,4,5-trihexadecyloxy-phenyl)-porphyrinato Zinc] | 0.71 ± 0.07 |
| 0.04 | C=CCCOCCCCCCCCCCCCCCCCOc1ccc(C2=c3ccc4[n]3[Zn][n]3c(ccc3C(c3cc(OCCCCCCCCCC)c(OCCCCCCCCCC)c(OCCCCCCCCCC)c3)=C3C=CC(=N3)C=4c3cc(OCCCCCCCCCC)c(OCCCCCCCCCC)c(OCCCCCCCCCC)c3)C(c3cc(OCCCCCCCCCC)c(OCCCCCCCCCC)c(OCCCCCCCCCC)c3)=C3C=CC2=N3)cc1 [Example 75, 5-[4-(16-but-3-Enyloxy-hexadecyloxy)-phenyl]-10,15,20-tris-(3,4,5-tridecyloxy-phenyl)-porphyrinato Zinc] | 0.71 ± 0.07 |
| 0.03 | C=CCCOCCCCCCCCCCCCCCCCOc1ccc(-c2c3nc(c(-c4cc(OCCCCCCCCCCCCCCCC)c(OCCCCCCCCCCCCCCCC)c(OCCCCCCCCCCCCCCCC)c4)c4ccc([n-]4)c(-c4cc(OCCCCCCCCCCCCCCCC)c(OCCCCCCCCCCCCCCCC)c(OCCCCCCCCCCCCCCCC)c4)c4nc(c(-c5cc(OCCCCCCCCCCCCCCCC)c(OCCCCCCCCCCCCCCCC)c(OCCCCCCCCCCCCCCCC)c5)c5ccc2[n-]5)C=C4)C=C3)cc1.[Zn+2] [Example 76, 5-[4-(16-but-3-Enyloxy-hexadecyloxy)-phenyl]-10,15,20-tris-(3,4,5-trihexadecyloxy-phenyl)-porphyrinato Zinc] | 0.66 ± 0.07 |
| 0.14 | C=CCCOCCCCCCOc1ccc(-c2c3nc(c(-c4cc(OCCCCCCCCCC)c(OCCCCCCCCCC)c(OCCCCCCCCCC)c4)c4ccc([n-]4)c(-c4cc(OCCCCCCCCCC)c(OCCCCCCCCCC)c(OCCCCCCCCCC)c4)c4nc(c(-c5cc(OCCCCCCCCCC)c(OCCCCCCCCCC)c(OCCCCCCCCCC)c5)c5ccc2[n-]5)C=C4)C=C3)cc1.[Mg+2] [Example 77, 5-[4-(6-but-3-Enyloxy-hexyloxy)-phenyl]-10,15,20-tris-(3,4,5-tridecyloxy-phenyl)-porphyrinato Magnesium] | 0.51 ± 0.05 |
